≈ marks a conversion by molar mass, not a printed value. Read-outs that look alike come from different tables or passages of the source.
Assays:
[1] = HTChem stab assay (chemical stability in buffer pH2, pH4 and pH7 vs DMSO reference); assay type: physicochemical; conditions: 72 h, 50 µM; for Chemical stability data, Buffer pH2: pH 2; for Chemical stability data, Buffer pH4: pH 4; for Chemical stability data, Buffer pH7: pH 7
Method in brief: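 Compound from 10 mM DMSO stock shaken 72 h at room temperature in Buffer/DMSO (2:1) at pH2 (0.1N HCl), pH4 or pH7 (phosphate), alongside a DMSO control. Samples analysed by LC/UV/MS against the DMSO reference; degradant peaks identified by MS and sample purity reported.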

[2] = system: Mycobacterium tuberculosis strain H37Rv; assay: Test 2: MIC determination against M. tuberculosis, resazurin fluorescence; assay type: cell-based; conditions: Mycobacterium tuberculosis, H37RV, Test 2, M. tuberculosis H37Rv; for MIC90: read-out: Bacterial activity MIC90; for IC50: read-out: Bacterial activity pMIC50 (converted)
[3] = Metabolic stability in liver microsomes (intrinsic clearance); assay type: in vitro ADME; conditions: microsomes
Method in brief: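 Compound (typically 1 μM) incubated at 37° C with liver microsomes (0.5 mg/ml protein) of selected species, 1 mM NADPH, 1 mM MgCl2, 0.1 M phosphate pH 7.4, sampled 0–60 min. Parent remaining measured by LC-MS/MS; t1/2 from log-linear slope, then Clint in μl/min/mg protein.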

[4] = system: Salmonella typhimurium Ames II Mixed Strains (TA7001-TA7006) and TA98; assay: Genotoxicity assay (AmesIIb mutagenicity test); assay type: cell-based; conditions: Salmonella typhimurium; also: key: an AmesIIb score of 1 shows no genotoxicity signals
Method in brief: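 Ames II fluctuation-type reverse mutation test using Ames II Mixed Strains (equimolar TA7001–TA7006, six base-pair substitutions) plus TA98 (frameshift). Run with and without mammalian metabolic activation across varying compound concentrations; His+ revertants selected on histidine-free medium.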

[5] = mouse, pH 7.4, Metabolic Stability Half life (mouse, min.)
[6] = mouse, pH 7.4, mouse liver microsomes, read-out: Metabolic Stability (liver microsome intrinsic clearance) Clearance (mouse, μl/min./mg protein)
[7] = human, pH 7.4, Metabolic Stability Half life (human, min.)
[8] = human, pH 7.4, human liver microsomes, read-out: Metabolic Stability (liver microsome intrinsic clearance) Clearance (human, μl/min./mg protein)

| Compound | Chemical stability data, Vehicle DMSO [1] [%] | Chemical stability data, Buffer pH2 [1] [%] | Chemical stability data, Buffer pH4 [1] [%] | Chemical stability data, Buffer pH7 [1] [%] | MIC90 [2] [µM] | IC50 [2] [pM] | half-life at 1 µM [3, 5] [h] | microsomal CLint at 1 µM [3, 6] [µL/min/mg] | GeneTox AmesIIb Score [4] | half-life at 1 µM [3, 7] [h] | microsomal CLint at 1 µM [3, 8] [µL/min/mg] |
| --- | --- | --- | --- | --- | --- | --- | --- | --- | --- | --- | --- |
| CCc1nc2nc(C)c(C)cn2c1C(=O)NCc1ccc(-c2nc3n(n2)CCC(C(F)(F)F)C3)cc1 (stereo not shown) [Compound 9ab] | 100 | 100 | 100 | 100 | 0.011 (≈ 5.47 ng/mL) | 4940 | 1.66 | 13.9 | 1 |  |  |
| CCc1nc2ncc(Cl)cn2c1C(=O)NCc1ccc(-c2nc3n(n2)CCC(C(F)(F)F)C3)cc1 (stereo not shown) [Compound 10ab] | 90 | 72 | 64 | 90 | 0.016 (≈ 8.06 ng/mL) | 5500 | > 3 | < 7.7 | 1 |  |  |
| CCc1nc2nc(N)c(C)cn2c1C(=O)NCc1ccc(-c2nc3n(n2)CCC(C(F)(F)F)C3)cc1 (stereo not shown) [Compound 12ab] | 99 | 100 | 100 | 100 | 0.064 (≈ 31.9 ng/mL) | 23400 | > 3 | < 7.7 | 1 | > 3 | < 7.7 |
| CCc1nc2ncc(C)cn2c1C(=O)NCc1ccc(-c2cc3n(n2)CCC(C(F)(F)F)C3)cc1 (stereo not shown) [Compound 20ab] | 100 | 100 | 100 | 100 | 0.003 (≈ 1.45 ng/mL) | 931 | 1.08 | 21.3 | 1 | 0.637 | 36.3 |
| CCc1nc2ncc(C)cn2c1C(=O)NCc1ccc(-c2nc3n(n2)CCC(C(F)(F)F)C3)c(F)c1 (stereo not shown) [Compound 22ab] | 98 | 97 | 97 | 98 | 0.007 (≈ 3.51 ng/mL) | 2290 | 1.78 | 13 | 1 |  |  |
| CCc1nc2ncc(C)cn2c1C(=O)NCc1ccc(-c2nc3n(n2)CCC(C(F)(F)F)C3)c(C)c1 (stereo not shown) [Compound 23ab] | 100 | 100 | 100 | 100 | 0.022 (≈ 10.9 ng/mL) | 8300 | 1.58 | 14.6 | 1 |  |  |
| CCc1nc2ncc(C)cn2c1C(=O)NCc1ccc(-c2nc3n(n2)CC(C(F)(F)F)CC3)cc1 (stereo not shown) [Compound 24ab] | 100 | 100 | 100 | 100 | 0.008 (≈ 3.87 ng/mL) | 3380 | > 3 | < 7.7 | 1 |  |  |
| CCc1nc2ncc(C)cn2c1C(=O)NCc1ccc(-c2nc3n(n2)CCC(C(F)F)C3)cc1 (stereo not shown) [Compound 25ab] | 100 | 100 | 100 | 100 | 0.014 (≈ 6.52 ng/mL) | 7460 | 2.32 | 9.97 | 1 |  |  |
| CCc1nc2ncc(C)cn2c1C(=O)NCc1ccc(-c2nc3n(n2)CCC(OC)C3)cc1 (stereo not shown) [Compound 26ab] | 95 | 95 | 95 | 95 | 0.143 (≈ 63.7 ng/mL) | 49400 | 2.12 | 10.9 | 1 |  |  |
